# Data: the supplement of paper PMC10307832
# Legend:
# Experiment in all cases: relative viability (nuclei count vs DMSO), 5 days (fraction); higher = more cells survive
# Axitinib + Linsitinib = compound: CNC(=O)c1ccccc1Sc1ccc2c(/C=C/c3ccccn3)n[nH]c2c1 [Axitinib] + C[C@]1(O)C[C@@H](c2nc(-c3ccc4ccc(-c5ccccc5)nc4c3)c3c(N)nccn32)C1 [Linsitinib] (partner 1 µM)
# Summary of the method: (§1)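 Each reported value is a median over duplicate plates. It expresses relative viability: treated-well nuclei count divided by vehicle-well nuclei count. Lung cancer cell lines in 1536-well plates were dosed by pin tool a day after seeding, alone with one drug or with a fixed anchor-drug dose plus five library-drug doses (not always all listed) in √10 steps, and nuclei were counted after 5 days.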
# [1] = compound: Nc1nc(Nc2ccc3c(c2)CC[C@@H](N2CCCC2)CC3)nn1-c1cc2c(nn1)-c1ccccc1CCC2 [Bemcentinib] + CC(=O)c1c(C)c2cnc(Nc3ccc(N4CCNCC4)cn3)nc2n(C2CCCC2)c1=O [Palbociclib] (partner 0.5 µM)
# Summary of the method: as §1
# Axitinib + Palbociclib = compound: CNC(=O)c1ccccc1Sc1ccc2c(/C=C/c3ccccn3)n[nH]c2c1 [Axitinib] + CC(=O)c1c(C)c2cnc(Nc3ccc(N4CCNCC4)cn3)nc2n(C2CCCC2)c1=O [Palbociclib] (partner 0.5 µM)
# Summary of the method: as §1
# [2] = compound: CC1=CC=C(C=C1)C(=O)CN2C3=C(CCCC3)SC2=N [Pifithrin_alpha] + NC(=O)Nc1cc(-c2cccc(F)c2)sc1C(=O)N[C@H]1CCCNC1 [AZD7762] (partner 0.2 µM)
# Summary of the method: as §1
Cell Line,relative viability (Axitinib + Linsitinib; first compound 0.005 µM),relative viability (Axitinib + Linsitinib; first compound 0.01581 µM),relative viability (Axitinib + Linsitinib; first compound 0.05 µM),relative viability (Axitinib + Linsitinib; first compound 0.1581 µM),relative viability (Axitinib + Linsitinib; first compound 0.5 µM),relative viability ([1]; first compound 0.04 µM),relative viability ([1]; first compound 0.1265 µM),relative viability ([1]; first compound 0.4 µM),relative viability ([1]; first compound 1.265 µM),relative viability ([1]; first compound 4 µM),relative viability (Axitinib + Palbociclib; first compound 0.005 µM),relative viability (Axitinib + Palbociclib; first compound 0.01581 µM),relative viability (Axitinib + Palbociclib; first compound 0.05 µM),relative viability (Axitinib + Palbociclib; first compound 0.1581 µM),relative viability (Axitinib + Palbociclib; first compound 0.5 µM),relative viability ([2]; first compound 1 µM),relative viability ([2]; first compound 3.162 µM),relative viability ([2]; first compound 10 µM),relative viability ([2]; first compound 31.62 µM),relative viability ([2]; first compound 100 µM)
HCC-44,0.756,0.699,0.746,0.692,0.733,1.02,1.03,0.96,1.01,1.1,0.946,0.967,0.988,0.96,1.04,0.91,0.977,0.985,0.869,0.888
HCC-78,0.602,0.414,0.52,0.526,0.479,0.461,0.455,0.438,0.409,0.48,0.504,0.408,0.469,0.5,0.449,–,0.509,0.566,0.54,0.526
HCC-366,0.673,0.615,0.776,0.662,0.842,0.398,0.508,0.528,0.443,0.519,0.438,0.378,0.399,0.36,0.524,0.23,0.183,0.183,–,0.174
HCC-827,0.927,0.907,0.963,0.977,0.999,0.529,0.537,0.461,0.526,0.471,0.511,0.501,0.475,0.491,0.546,0.159,0.177,0.189,0.189,0.154
HOP-62,0.961,0.977,0.777,0.894,1.06,0.46,0.501,0.485,0.474,0.463,0.469,0.436,0.44,0.45,0.468,1.24,0.803,0.769,0.659,0.809
LC-2-ad,0.843,0.844,0.887,0.833,1.01,0.557,0.49,0.524,0.565,0.516,0.473,0.532,0.485,0.503,0.523,0.969,0.849,0.705,0.6,0.642
LCLC-97TM1,0.187,0.226,0.199,0.179,0.186,0.253,0.283,0.231,0.261,0.264,0.27,0.263,0.199,0.201,0.239,0.222,0.231,0.382,–,0.239
LCLC-103H,1.27,1.08,1.05,1.05,1.03,0.459,0.438,0.522,0.497,0.554,0.475,0.464,0.493,0.474,0.451,0.792,0.846,0.791,0.721,0.85
LK-2,0.543,0.471,–,0.439,0.415,0.78,0.75,0.934,0.728,0.665,0.492,0.661,0.544,0.659,0.668,0.301,0.571,0.58,–,0.346
LOU-NH91,1.08,0.595,0.997,0.948,0.961,0.521,0.564,0.525,0.513,0.537,0.564,0.568,0.537,0.444,0.527,0.625,0.755,0.683,0.589,0.604
LU99A,0.611,0.561,0.5,0.483,0.553,0.367,0.37,0.422,0.401,0.413,0.408,0.416,0.394,0.438,0.417,0.359,0.459,0.341,–,0.352
LXF-289,0.991,0.952,0.972,0.962,0.968,0.633,0.629,0.581,0.558,0.622,0.597,0.539,0.603,0.583,0.657,1.16,1.12,1.23,1.12,1.13
NCI-H23,0.66,0.618,0.653,0.587,0.721,0.443,0.472,0.558,0.457,0.519,0.458,0.512,0.616,0.483,0.559,0.229,0.279,0.265,0.172,0.268
NCI-H322M,0.932,0.897,0.892,0.889,0.827,0.49,0.481,0.483,0.537,0.557,0.454,0.442,0.491,0.427,0.514,0.413,0.462,0.48,0.498,0.487
NCI-H358,0.729,0.803,0.852,0.727,0.848,0.135,0.143,0.143,0.137,0.135,0.17,0.159,0.143,0.129,0.13,0.582,0.489,0.496,0.427,0.413
NCI-H441,0.593,0.52,0.519,0.582,0.576,0.197,0.202,0.227,0.195,0.223,0.239,0.225,0.222,0.204,0.25,1.34,1.16,1.3,–,1.06
